In brackets after ≈: the same amount, converted by molar mass. One block for each compound: values may come before it.
Legend:
E.faecium = assay: In vitro activity against selected species (MIC50, range); assay type: cell-based; details: Enterococcus faecium, medium MHA
Experimental: (§1) In vitro activity was determined by minimum inhibitory concentration in a microorganism spectum by the agar dilution method in Mueller Hinton agar.

Escherichia coli 25922 = assay: Efficacy against systemic infections (septicemia) in mice; assay type: in vivo; details: 96 h, survival day 4
Experimental: (§2) Septicemia was induced in outbred Swiss albino mice (Jbm MoRo [specific pathogen free]; weight 16 to 20 g, Biomedical Research Laboratories, Füllinsdorf, Switzerland). Mice were infected by intraperitoneal injection of diluted overnight cultures of the test organisms. Bacterial challenge doses were 4-10 times the number of organisms required to kill 50% of untreated animals within 48 h. The test compounds were administered p.o. or s.c. 1 and 3 h after the bacterial challenge. To treat the infection with Pseudomonas aeruginosa BA an additional dose was given 5 h after challenge. Control and treatment groups at each dose were composed of five mice each. The 50% effective dose (ED50, in milligrams per kilogram) was calculated by probit analysis as described by Finney (Finney, D.J. 1978, Statistical method in biological assay, 3rd ed. Charles Griffin & Co., Ltd., London), from the survival rates on day 4 after infection.

S.aureus Smith = assay: as above; assay type: in vivo; details: Staphylococcus aureus, 96 h, sc 1 and 3 h after challenge, survival day 4
Experimental: as §2

S.pneumoniae PEN-R = assay: In vitro activity against selected species (MIC50, MIC90, range); assay type: cell-based; details: Streptococcus pneumoniae; for MIC: MIC range
E.faecalis [1] = assay: as above; assay type: cell-based; details: Enterococcus faecalis, medium IsoB
S.viridans group 016 = assay: Antibacterial spectrum (MIC), agar dilution; assay type: cell-based; details: Streptococcus viridans, read-out: MIC
Experimental: as §1

E.cloacae 908R = assay: Antibacterial spectrum (MIC), agar dilution; assay type: cell-based; details: Enterobacter cloacae, read-out: MIC
Experimental: as §1

E.cloacae 908SSi = assay: Antibacterial spectrum (MIC), agar dilution; assay type: cell-based; details: Enterobacter cloacae, read-out: MIC
Experimental: as §1

X.maltophilia 1AC739 = assay: Antibacterial spectrum (MIC), agar dilution; assay type: cell-based; details: Stenotrophomonas maltophilia, read-out: MIC
Experimental: as §1

L.monocytogenes BK23 = assay: Antibacterial spectrum (MIC), agar dilution; assay type: cell-based; details: Listeria monocytogenes, read-out: MIC
Experimental: as §1

C.freundii 902 = assay: Antibacterial spectrum (MIC), agar dilution; assay type: cell-based; details: Citrobacter freundii, read-out: MIC
Experimental: as §1

S.aureus 6538 = assay: Antibacterial spectrum (MIC), agar dilution; assay type: cell-based; details: Staphylococcus aureus, read-out: MIC
Experimental: as §1

S.pneumoniae Q19 = assay: Antibacterial spectrum (MIC), agar dilution; assay type: cell-based; details: Streptococcus pneumoniae, read-out: MIC
Experimental: as §1

C.freundii 43 = assay: Antibacterial spectrum (MIC), agar dilution; assay type: cell-based; details: Citrobacter freundii, read-out: MIC
Experimental: as §1

N.meningitidis 69480 = assay: Antibacterial spectrum (MIC), agar dilution; assay type: cell-based; details: Neisseria meningitidis, read-out: MIC
Experimental: as §1

Acinetobacter sp.51-156 = assay: Antibacterial spectrum (MIC), agar dilution; assay type: cell-based; details: SP.51156, read-out: MIC
Experimental: as §1

E.faecalis 6 = assay: Antibacterial spectrum (MIC), agar dilution; assay type: cell-based; details: Enterococcus faecalis, read-out: MIC
Experimental: as §1

S.pyogenes B15 = assay: Antibacterial spectrum (MIC), agar dilution; assay type: cell-based; details: Streptococcus pyogenes, read-out: MIC
Experimental: as §1

M.morganii 6H-137 = assay: Antibacterial spectrum (MIC), agar dilution; assay type: cell-based; details: Morganella morganii, 6H137, read-out: MIC
Experimental: as §1

P.mirabilis 2117 = assay: Antibacterial spectrum (MIC), agar dilution; assay type: cell-based; details: Proteus mirabilis, read-out: MIC
Experimental: as §1

P.vulgaris 1028 = assay: Antibacterial spectrum (MIC), agar dilution; assay type: cell-based; details: Proteus vulgaris, read-out: MIC
Experimental: as §1

S.aureus 734 MRSA = assay: Antibacterial spectrum (MIC), agar dilution; assay type: cell-based; details: Staphylococcus aureus, read-out: MIC
Experimental: as §1

P.aeruginosa 27853 = assay: Antibacterial spectrum (MIC), agar dilution; assay type: cell-based; details: Pseudomonas aeruginosa, read-out: MIC
Experimental: as §1

S.marcescens 69438 = assay: Antibacterial spectrum (MIC), agar dilution; assay type: cell-based; details: Serratia marcescens, read-out: MIC
Experimental: as §1

M.catarrhalis RA21 = assay: Antibacterial spectrum (MIC), agar dilution; assay type: cell-based; details: Moraxella catarrhalis, read-out: MIC
Experimental: as §1

K.pneumoniae 418 = assay: Antibacterial spectrum (MIC), agar dilution; assay type: cell-based; details: Klebsiella pneumoniae, read-out: MIC
Experimental: as §1

E.coli 25922 = assay: Antibacterial spectrum (MIC), agar dilution; assay type: cell-based; details: Escherichia coli, read-out: MIC
Experimental: as §1

S.agalactiae QK44 = assay: Antibacterial spectrum (MIC), agar dilution; assay type: cell-based; details: Streptococcus agalactiae, read-out: MIC
Experimental: as §1

H.influenzae 1 = assay: Antibacterial spectrum (MIC), agar dilution; assay type: cell-based; details: Haemophilus influenzae, read-out: MIC
Experimental: as §1

E.faecalis [2] = assay: In vitro activity against selected species (MIC50, MIC90, range); assay type: cell-based; details: Enterococcus faecalis, medium MHA; for MIC: MIC range
Experimental: as §1

S.aureus MRSA = assay: as above; assay type: cell-based; details: Staphylococcus aureus, medium MHA (Mueller Hinton Agar) +NaCl; for MIC: MIC range
Experimental: as §1

M.catarrhalis = assay: as above; assay type: cell-based; details: Moraxella catarrhalis, medium IsoB
S.aureus MSSA = assay: as above; assay type: cell-based; details: Staphylococcus aureus, medium MHB (Mueller Hinton Broth)
S.viridans group = assay: as above; assay type: cell-based; details: Streptococcus viridans
[3] = medium IsoB (Isosensitest Broth)

MIC (E.faecium; MIC range): 1 to 8 µg/mL (≈ 2.02 to 16.2 µM) | MIC50 (E.faecium): 4 µg/mL (≈ 8.09 µM) | MIC (S.pneumoniae PEN-R; [3]): 0.1 to 0.5 µg/mL (≈ 0.202 to 1.01 µM) | MIC (S.pneumoniae PEN-R; medium IsoB + 20% serum): 0.12 to 0.5 µg/mL | MIC50 (S.pneumoniae PEN-R; [3]): 0.25 µg/mL (≈ 0.506 µM) | MIC90 (S.pneumoniae PEN-R; [3]): 0.5 µg/mL (≈ 1.01 µM) | MIC50 (S.pneumoniae PEN-R; medium IsoB + 20% serum): 0.5 µg/mL | MIC (E.faecalis [1]; MIC range): 0.25 to 2 µg/mL (≈ 0.506 to 4.04 µM) | MIC50 (E.faecalis [1]): 0.5 µg/mL (≈ 1.01 µM) | MIC90 (E.faecalis [1]): 2 µg/mL (≈ 4.04 µM) | MIC (S.viridans group 016): 0.5 µg/mL (≈ 1.01 µM) | MIC (E.cloacae 908R): 32 µg/mL (≈ 64.7 µM) | MIC (E.cloacae 908SSi): 0.25 µg/mL (≈ 0.506 µM) | MIC (X.maltophilia 1AC739): > 32 µg/mL | MIC (L.monocytogenes BK23): 2 µg/mL (≈ 4.04 µM) | MIC (C.freundii 902): ≤ 0.06 µg/mL | MIC (S.aureus 6538): 0.5 µg/mL (≈ 1.01 µM) | MIC (S.pneumoniae Q19): ≤ 0.06 µg/mL | MIC (C.freundii 43): 4 µg/mL (≈ 8.09 µM) | MIC (N.meningitidis 69480): ≤ 0.06 µg/mL | MIC (Acinetobacter sp.51-156): 8 µg/mL (≈ 16.2 µM) | MIC (E.faecalis 6): 1 µg/mL (≈ 2.02 µM) | MIC (S.pyogenes B15): ≤ 0.06 µg/mL | MIC (M.morganii 6H-137): ≤ 0.06 µg/mL | MIC (P.mirabilis 2117): ≤ 0.06 µg/mL | MIC (P.vulgaris 1028): 2 µg/mL (≈ 4.04 µM) | MIC (S.aureus 734 MRSA): 16 µg/mL (≈ 32.4 µM) | MIC (P.aeruginosa 27853): 32 µg/mL (≈ 64.7 µM) | MIC (S.marcescens 69438): 1 µg/mL (≈ 2.02 µM) | MIC (M.catarrhalis RA21): 16 µg/mL (≈ 32.4 µM) | MIC (K.pneumoniae 418): ≤ 0.06 µg/mL | MIC (E.coli 25922): ≤ 0.06 µg/mL | MIC (S.agalactiae QK44): 0.25 µg/mL (≈ 0.506 µM) | MIC (H.influenzae 1): 0.12 µg/mL (≈ 0.243 µM) | MIC (E.faecalis [2]): 0.5 to 2 µg/mL (≈ 1.01 to 4.04 µM) | MIC50 (E.faecalis [2]): ≤ 0.5 µg/mL | MIC90 (E.faecalis [2]): 2 µg/mL (≈ 4.04 µM) | MIC (S.aureus MRSA): 8 to 16 µg/mL (≈ 16.2 to 32.4 µM) | MIC50 (S.aureus MRSA): 16 µg/mL (≈ 32.4 µM) | MIC90 (S.aureus MRSA): 16 µg/mL (≈ 32.4 µM) | MIC (M.catarrhalis; MIC range): 1 to 32 µg/mL (≈ 2.02 to 64.7 µM) | MIC50 (M.catarrhalis): 4 µg/mL (≈ 8.09 µM) | MIC90 (M.catarrhalis): 16 µg/mL (≈ 32.4 µM) | MIC (S.aureus MSSA; MIC range): 1 to 2 µg/mL (≈ 2.02 to 4.04 µM) | MIC50 (S.aureus MSSA): 1 µg/mL (≈ 2.02 µM) | MIC90 (S.aureus MSSA): 1 µg/mL (≈ 2.02 µM) | MIC50 (S.viridans group): 2 µg/mL (≈ 4.04 µM) | MIC90 (S.viridans group): 2 µg/mL (≈ 4.04 µM) | MIC (S.viridans group; MIC range): 0.12 to 8 µg/mL (≈ 0.243 to 16.2 µM)
SMILES: CON1CC/C(=C\C2=C(C(=O)O)N3C(=O)[C@@H](NC(=O)/C(=N\O)c4csc(N)n4)[C@H]3SC2)C1=O [G]
ED50 (Escherichia coli 25922; Escherichia coli 25922, po (orally) 1 and 3 h after challenge): ~3 mg/kg | ED50 (Escherichia coli 25922; Escherichia coli, E.coli 25922, sc 1 and 3 h after challenge): < 0.1 mg/kg | ED50 (S.aureus Smith): < 1 mg/kg

MIC (S.viridans group 016): 1 µg/mL (≈ 1.85 µM) | MIC (E.cloacae 908R): 16 µg/mL (≈ 29.6 µM) | MIC (E.cloacae 908SSi): 0.5 µg/mL (≈ 0.925 µM) | MIC (X.maltophilia 1AC739): > 32 µg/mL | MIC (C.freundii 902): 0.5 µg/mL (≈ 0.925 µM) | MIC (S.aureus 6538): 0.5 µg/mL (≈ 0.925 µM) | MIC (S.pneumoniae Q19): 0.12 µg/mL (≈ 0.222 µM) | MIC (C.freundii 43): 4 µg/mL (≈ 7.4 µM) | MIC (N.meningitidis 69480): 0.12 µg/mL (≈ 0.222 µM) | MIC (Acinetobacter sp.51-156): 32 µg/mL (≈ 59.2 µM) | MIC (E.faecalis 6): 0.25 µg/mL (≈ 0.462 µM) | MIC (S.pyogenes B15): ≤ 0.06 µg/mL | MIC (M.morganii 6H-137): ≤ 0.06 µg/mL | MIC (P.mirabilis 2117): ≤ 0.06 µg/mL | MIC (P.vulgaris 1028): 2 µg/mL (≈ 3.7 µM) | MIC (S.aureus 734 MRSA): 8 µg/mL (≈ 14.8 µM) | MIC (P.aeruginosa 27853): 32 µg/mL (≈ 59.2 µM) | MIC (S.marcescens 69438): 1 µg/mL (≈ 1.85 µM) | MIC (M.catarrhalis RA21): > 16 µg/mL | MIC (K.pneumoniae 418): 0.12 µg/mL (≈ 0.222 µM) | MIC (E.coli 25922): 0.25 µg/mL (≈ 0.462 µM) | MIC (S.agalactiae QK44): 0.25 µg/mL (≈ 0.462 µM) | MIC (H.influenzae 1): 0.5 µg/mL (≈ 0.925 µM) | MIC (E.faecalis [2]): 0.5 to 16 µg/mL (≈ 0.925 to 29.6 µM) | MIC50 (E.faecalis [2]): 1 µg/mL (≈ 1.85 µM) | MIC90 (E.faecalis [2]): 1 µg/mL (≈ 1.85 µM) | MIC (S.aureus MRSA): 16 to 32 µg/mL (≈ 29.6 to 59.2 µM) | MIC50 (S.aureus MRSA): 16 µg/mL (≈ 29.6 µM) | MIC90 (S.aureus MRSA): 16 µg/mL (≈ 29.6 µM)
SMILES: Nc1nc(/C(=N/O)C(=O)N[C@@H]2C(=O)N3C(C(=O)O)=C(/C=C4\CCN(c5ccccc5)C4=O)CS[C@H]23)cs1 [H]
ED50 (S.aureus Smith): < 0.5 mg/kg

Reference: EP0620225B1, “Cephalosporin derivatives” (Basilea Pharmaceutica AG, priority 1993, dated 1994)
